From patent US6433015B1, “Method for reducing body weight” (IPR-Institute for Pharmaceutical Research AG, priority 1997, dated 2002)

Tests used:
[1] = 7-month study on body weight loss in 22 test persons administered creatine; type: in vivo, human
Protocol: An experiment was carried out with 22 test persons in order to confirm the weight reducing effect of creatine using the dosage according to the invention. The test persons were instructed for the duration of the experiment not to change their day-to-day habits (diet and physical exercise). In order to find the optimal dosage the test persons were initially divided into three groups with a daily dosage of either 100 mg, 300 mg or 600 mg of creatine. […] The data are reported as so-called body mass index (BMI), which is calculated from the body weight in dilograms divided by the height in meters in square.

[2] = cited from earlier work

For CN(CC(=O)O)C(=N)N [creatine, N-Amidinosarcosine], the “body weight, reported as body mass index (BMI)” value ([1]; 7-month study, 22 test persons, after the 3 months dosage-finding period, single daily dose of 100 mg) is listed as “a steady decrease of body weight occured”, the “weight loss in dosage-finding period” value ([1]; groups with daily dosage of 100 mg, 300 mg or 600 mg of creatine, after 3 months, diet and physical exercise unchanged) is listed as “the group with 100 mg had shown the most noticeable weight loss” and the body weight ([2]; daily dosage of at least 15 g to 30 g (0.2 g to 0.4 g per kilogram body weight), physically active test persons, WO 94/02127, Sahelian, Gremion) is listed as “enhancement of body weight”. For the same compound, the fat mass ([2]; high-dose creatine with high muscle strain, Sahelian 1997, Gremion 1995) was “the fat mass is decreased”.
